Test results reported in US6632421B2, “Deodorant composition comprising a water-soluble zinc salt as odor-absorbing agent” (L'Oreal, priority 1996, dated 2003).

Assay: odour absorption test with respect to natural sweat (sniff test on flasks)
Design: species or system human
Experimental: An odour absorption test was carried out with respect to natural sweat.
The axillary sweat from a number of people was thus removed in a sauna and combined to produce a sweat sample. In order to obtain the characteristic nauseating smell of sweat, before introducing the active substance, this sweat sample was incubated for 14 hours at a temperature of 37° C. 1 ml of the incubated sweat sample was introduced into each flask of active substance to be tested and into a control flask (without active substance). The active substance: 5.5 mg of Zn ion in the form of zinc pidolate, zinc chloride, zinc gluconate, zinc lactate, zinc phenolsulphonate and zinc sulphate, was then introduced respectively into each of the flasks of active substance to be tested.
The flasks were then incubated for a second time for 24 hours at a temperature of 37° C. and then for a third time for 3 days at room temperature.
Eight judges then smelled (“sniff test”) each of these flasks and graded the intensity of the smell on a scale from 0 to 4.

## Oc1cc(Cl)ccc1Oc1ccc(Cl)cc1Cl [triclosan, 5-chloro-2-(2,4-dichlorophenoxy)phenol]
Sample containing a bactericide, check that the test is truly an odour absorption test
  absorption effect on the smell of sweat: no absorption effect

## zinc pyrrolidonecarboxylate [zinc pidolate]
5.5 mg of Zn ion in 1 ml incubated sweat, 24 hours at 37° C. then 3 days at room temperature, eight judges, control flask graded 4
  intensity of the smell, grade on a scale from 0 to 4 (0=no smell, 4=strong smell): best results
